According to US11662342B2, “Barrier function measurements” (MIMETAS B.V., priority 2015, dated 2023):

Experiments:
[1] = tested on: Caco-2 tubules; assay: Loss of barrier function of gut tubule (Caco-2) exposed to aspirin (TRITC-dextran 150 kDa); type: cell-based, human; conditions: for loss of barrier integrity: imaged every hour for 24 hours
Source text: FIG. 11 depicts the loss of barrier function of a gut tubule exposed to aspirin. […] However, the lack of data on concentrations with a maximum response hinders accurate EC50 estimation.

[2] = tested on: MDCK tubules; type: cell-based, canine
Source text: The 3 lane OrganoPlate® offers the unique possibility to add a compound from only the apical or the basolateral side of the tubular structure. […] Actively transported compounds can have directionality in the trans-cellular transport, as is for example the situation in the renal proximal tubules, where moving compounds specifically from the apical side of the tube to the basolateral side, or the other way around, is part of the renal filtering function. This implies toxic compounds that are actively transported by the proximal tubule cells can have a different effect depending on the location of exposure. The anti-cancer drug cisplatin is taken up by cells by the OCT-2 transporter that is expressed on the basal side of the epithelial monolayer. MDCK cells were seeded in the top channel of a 200 μm 3 lane OrganoPlate® against a collagen I ECM at 10E6 cells/mL. Three days after seeding MDCK tubules were exposed to increasing concentrations of cisplatin from either the apical or basal side by replacing the medium either in the top medium channel, or in the bottom medium channel, with medium with cisplatin. At the start of the exposure the medium in the top channel was also supplied with a fluorescent leakage marker, FITC-dextran 150 kDa.

[3] = tested on: LLC-PK1 tubules; assay: Barrier integrity assay, LLC-PK1 tubules with staurosporin exposure (FITC-dextran 150 kDa leakage); type: cell-based, pig; conditions: 0, 1, 5 or 10 μM in top perfusion channel, imaged every 15 min for 16 hours
Experimental: The integrity of a cellular barrier, cultivated for example as described in FIGS. 1 and 2, can be probed by replacing the medium in the perfusion channel by medium containing 500 μg/mL FITC-dextran 150 kDa (Sigma, 46946). A) If the cellular barrier is leak-tight the fluorescent signal will be contained in the perfusion channel, whereas in the microfluidic chip with no cells, just ECM in the gel channel, the fluorescent signal will enter the ECM and will saturate within minutes. The fluorescent signal in the perfusion and gel channel can be monitored real time using time-lapse fluorescent microscopy, as for example with the ImageXpress Micro (Molecular Devices). B) Fluorescent signal intensity of the FITC-dextran 150 kDa was quantified in the top perfusion channel and in the gel channel using FIJI analysis software (Schindelin, J.; Arganda-Carreras, I. & Frise, E. et al. (2012), “Fiji: an open-source platform for biological-image analysis”, Nature methods 9(7): 676-682, PMID 22743772). C) The intensity of the gel channel was divided by the intensity of the top perfusion channel and the ratio was plotted against the time after start of fluorescent reporter addition. Without a cellular barrier the ECM is saturated within minutes after dye addition whereas a ratio close to zero is maintained as long as the cellular barrier is intact. […]

[4] = tested on: MDCK tubules; assay: Barrier integrity assay, MDCK tubules with staurosporin exposure (FITC-dextran 150 kDa leakage); type: cell-based, canine; conditions: 0, 1, 4, 7 or 10 μM in top perfusion channel, imaged every hour for 15 hours
Experimental: MDCK (canine) cell line was seeded at 10*10^6 cells/mL in the top perfusion channel of a 400 μm 3-lane OrganoPlate® against a collagen I ECM (Cultrex, Amsbio, 3447-020-01, 4 mg/mL). 60 μL of medium was added to the medium inlet and outlet of the top perfusion channel. Plate was incubated on its side for 3 hours to allow cells to settle on top of the ECM. Three hours after seeding 60 μL medium was added to the medium inlet and outlet of the bottom perfusion channel and plate was placed on a rocker platform for continuous medium perfusion (angle 7°, tilt every 8 min). […] Volumes were 40 μL inlet/30 μL outlet in top perfusion channel, 0 μL inlet/0 μL outlet in the middle ECM channel, 20 μL inlet/20 μL outlet standard culture medium in the bottom perfusion channel. […]
Fluorescent signal intensity of the FITC-dextran 150 kDa was quantified in the top perfusion channel and in the gel channel of FIG. 4 using FIJI analysis software (Schindelin, J.; Arganda-Carreras, I. & Frise, E. et al. (2012), “Fiji: an open-source platform for biological-image analysis”, Nature methods 9(7): 676-682, PMID 22743772). […] The time-to-leakage value (e.g. 2 hours after compound addition) will have to be determined based on validation experiments to ensure maximal in vivo relevance. […]

[5] = tested on: Caco-2 tubules; assay: Time-to-leak barrier integrity assay, human gut tubule (Caco-2) exposed to staurosporin (TRITC-dextran 150 kDa); conditions: Caco-2 tubes; imaged every hour for 13 hours; normalized TRITC-dextran fluorescence
Experimental: The Caco-2 cell line (Sigma, human colon carcinoma cells) was seeded in a 400 μm 3 lane OrganoPlate® at 10E6 cells/mL, placed on side for cell-ECM attachment for 2 hours, and then placed on a modified rocker platform for continuous medium perfusion. Three days after seeding leak-tightness of the Caco-2 tubules was tested by replacing the medium in the top perfusion channel with medium containing 0.25 mg/mL TRITC dextran 150 kDa. […] Medium in the top medium channel was replaced with medium with TRITC-dextran and increasing concentrations of aspirin. Plate was placed in the ImageXpress Micro XLS under temperature and CO2 controlled conditions and imaged for fluorescent (TRITC) signal every hour for 13 hours. A dose response curve can be extracted at every time point from the time-lapse of the exposed Caco-2 tubes. GraphPad Prism 6 (GraphPad Software Inc., La Jolla, Calif.) was used to fit the dose response curve based on nonlinear regression of the logarithm of the compound concentration versus the normalized fluorescence assuming a top and bottom plateau at 0 and 100% fluorescence.

[6] = tested on: human proximal tubule cells (RPTEC); assay: Drug induced loss of barrier integrity of human kidney proximal tubule (RPTEC), Kaplan-Meier plot; type: cell-based; conditions: RPTEC tubules; increasing concentrations; imaged every hour for 60 hours; versus medium, vehicle control 1 and 2
Source text: After eight days in culture >95% of the seeded tubules were shown leak-tight by addition of FITC-dextran 150 kDa to the medium in the luminal compartment. Medium in the tubes was replaced with medium containing increasing concentrations of the renal toxicant amphotecerin B and the fluorescent FITC-dextran. […] IC indicates an inhibitor cocktail of 3 efflux transporter inhibitors.

CC(=O)Oc1ccccc1C(=O)O [aspirin] was tested, and the “loss of barrier integrity” value ([1]; 3.7 mM) was “loss of barrier integrity”, the “exposure time at which a 50% effect was observed” value ([1]; 12 mM) was 20 h and the “loss of barrier integrity” value ([1]; 12 mM (12.12 mM)) was “clear loss of barrier integrity”. For the same compound, the “exposure time at which a 50% effect was observed” value ([1]; 40 mM) was 10 h and the “loss of barrier integrity” value ([1]; 40 mM) was “clear loss of barrier integrity”.
For N.N.[Cl][Pt][Cl] [cisplatin], the “time-to-leak, tubes exposed from the basal side versus apical exposed tubes” value [2] was “significantly earlier”.
In the case of CN[C@@H]1C[C@H]2O[C@@](C)([C@@H]1OC)n1c3ccccc3c3c4c(c5c6ccccc6n2c5c31)C(=O)NC4 [staurosporin], the “integrity of the LLC-PK1 barrier with increasing concentrations” value [3] is reported as “breaks at an earlier time point”, the “integrity of the MDCK barrier with increasing concentrations” value [4] is reported as “breaks at an earlier time point” and the “dose response curve of barrier leakage with increasing exposure times” value [5] is reported as “shift towards lower compound concentrations”.
In the case of amphotecerin B, the “survival of tube integrity, exposed versus unexposed tubes” value [6] is reported as “significant difference”.
